The values that follow come from the supplement of paper PMC10307832.

Holding throughout (assay): relative viability (nuclei count vs DMSO), 5 days (fraction); higher = more cells survive
Compound in the experiment “Sulindac + Phenformin”: CC1=C(CC(=O)O)c2cc(F)ccc2/C1=C\c1ccc([S+](C)[O-])cc1 [Sulindac] + N=C(N)NC(=N)NCCc1ccccc1 [Phenformin] (partner 250 µM)
Summed up: (§1)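 Lung cancer cell lines in 1536-well plates got either a single drug or a fixed anchor-drug dose together with five library-drug doses (not always all listed) in √10 steps, by pin tool, on the day after seeding. Nuclei were counted after 5 days, and relative viability is the treated-to-vehicle ratio of nuclei counts. Values are medians of duplicate plates.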

Compound in experiment [1]: O=c1[nH]cc(F)c(=O)[nH]1 [5-Fluorouracil] + Nc1nc2[nH]cc(CCc3ccc(C(=O)N[C@@H](CCC(=O)O)C(=O)O)cc3)c2c(=O)[nH]1 [Pemetrexed] (partner 0.2 µM)
Summed up: as §1

Compound in experiment [2]: CN[C@@H]1C[C@H]2O[C@@](C)([C@@H]1OC)n1c3ccccc3c3c4c(c5c6ccccc6n2c5c31)C(=O)NC4 [Staurosporine] + CC1(C)CCC(c2ccc(Cl)cc2)=C(CN2CCN(c3ccc(C(=O)NS(=O)(=O)c4ccc(N[C@H](CCN5CCOCC5)CSc5ccccc5)c(S(=O)(=O)C(F)(F)F)c4)cc3)CC2)C1 [Navitoclax] (partner 0.5 µM)
The procedure, abridged: as §1

Compound in experiment [3]: O=c1[nH]cc(F)c(=O)[nH]1 [5-Fluorouracil] + O=C(c1cc(Cc2n[nH]c(=O)c3ccccc23)ccc1F)N1CCN(C(=O)C2CC2)CC1 [Olaparib] (partner 8 µM)
Summed up:
as §1

As for UMC-11, the relative viability with Sulindac + Phenformin (first compound 0.08 µM) came out at 0.359; with Sulindac + Phenformin (first compound 0.253 µM), 0.352; in the experiment with Sulindac + Phenformin (first compound 0.8 µM) it was 0.284; in the experiment with Sulindac + Phenformin (first compound 2.53 µM) it was 0.323; in the experiment with Sulindac + Phenformin (first compound 8 µM) it was 0.396; in experiment [1] (first compound 0.02 µM) it was 0.807. Further, the relative viability in experiment [1] (first compound 0.2 µM) worked out at 0.563; in experiment [1] (first compound 0.6325 µM), 0.508; in experiment [2] (first compound 0.005 µM), 0.265; in experiment [2] (first compound 0.01581 µM), 0.158; in experiment [2] (first compound 0.05 µM), 0.141; in experiment [2] (first compound 0.1581 µM) it was 0.106. In addition, the relative viability worked out at 0.103 in experiment [2] (first compound 0.5 µM), 0.409 in experiment [3] (first compound 0.02 µM), 0.37 in experiment [3] (first compound 0.2 µM) and 0.334 in experiment [3] (first compound 0.6325 µM).
